The text below walks through data of ChEMBL document CHEMBL3045189, “Ginsenoside Re downregulates ICAM-1 expression, inhibits polymorphonuclear infiltration, and ameliorates ischemia-reperfusion injury” (2010).

The structures appear in SMILES notation. Calls of active or inactive are those of the source. The rule behind the calls is not given here.

Assay [1] deals with Rattus norvegicus. The assay can be described thus: Cardioprotective activity in Rattus norvegicus Sprague-Dawley (rat) ischemia-reperfusion injury model assessed as decrease in myeloperoxidase activation in myocardial tissue at 20 mg/kg, iv measured 10 min prior to reperfusion measured at 6 hr by spectrophotometric analysis relative to untreated control. The class given is functional, organism-based. The arrangement: dose 20 mg/kg. Conditions: Myocardium.

Assay [2] concerns Rattus norvegicus. The assay can be described thus: Downregulation of ICAM-1 expression in Rattus norvegicus Sprague-Dawley (rat) heart at 20 mg/kg, iv measured 10 min post LAD ligation by Western blot analysis relative to untreated control. On the set-up: dose 20 mg/kg. The format is functional, organism-based.
Assay [3] concerns Rattus norvegicus. Kind of assay: Cardioprotective activity in Rattus norvegicus Sprague-Dawley (rat) ischemia-reperfusion injury model assessed as area at risk in myocardial tissue at 20 mg/kg, iv administered 10 min prior to ischemia-reperfusion establishment measured after 6 hr by Evans blue staining-based planimetric analysis (reference value: 49.8 +/- 3.7 %). The format is functional, Myocardium.

Assay [4] relates to Rattus norvegicus. Kind of assay: Cardioprotective activity in Rattus norvegicus Sprague-Dawley (rat) ischemia-reperfusion injury model assessed as decrease in polymorphonuclear leukocytes infiltration in myocardial tissue at 20 mg/kg, iv measured 10 min prior to reperfusion measured at 6 hr by hematoxylin-eosin staining-based light microscopy relative to untreated control. The format is functional, organism-based. The arrangement: dose 20 mg/kg. The note with it: Myocardium.

Assay [5] concerns Rattus norvegicus. The assay can be described thus: Cardioprotective activity in Rattus norvegicus Sprague-Dawley (rat) ischemia-reperfusion injury model assessed as decrease in myocardial infarct size at 20 mg/kg, iv administered 10 min prior to ischemia-reperfusion establishment measured after 6 hr by tetrazolium chloride staining-based planimetric analysis (reference value: 42.6 +/- 3.8 %). On the set-up: scale not given: the % may be the effect or the level left. The class given is functional, Myocardium.

For `CC(C)=CCC[C@](C)(O[C@@H]1O[C@H](CO)[C@@H](O)[C@H](O)[C@H]1O)[C@H]1CC[C@]2(C)[C@@H]1[C@H](O)C[C@@H]1[C@@]3(C)CC[C@H](O)C(C)(C)[C@@H]3[C@@H](O[C@@H]3O[C@H](CO)[C@@H](O)[C@H](O)[C@H]3O[C@@H]3O[C@@H](C)[C@H](O)[C@@H](O)[C@H]3O)C[C@]12C` [GINSENOSIDE RE], the outcome with Rattus norvegicus [1], with Rattus norvegicus [2] and in the assay on Rattus norvegicus [4] was Active. Further, the values for the Activity in the assay on Rattus norvegicus [3] and with Rattus norvegicus [5] were 50.3% and 42.6%, respectively.
